In patent publication US12275733B2, “Substituted pyrido[3,4-b]indoles for the treatment of cartilage disorders” (Sanofi, priority 2016, dated 2025):

Test system: ATDC5 cells
Assay: Chondrogenesis activity assay in ATDC5 cells (collagen type II induction, immunofluorescence)
Type: cell-based, mouse
Conditions: Mus musculus; for EC50: collagen type II induction in ATDC5 cells, concentration reaching 50% of maximum induction; for Emax: maximum percent induction of collagen type II relative to internal reference compound at 10 μM, ATDC5 cells
Protocol: A) Chondrogenesis Activity Assay in ATDC5 Cells
The chondrogenic potential of the compounds of the invention was determined using clonal mouse chondrogenic ATDC5 cells (T. Atsumi et al., Cell Differ. Dev. 1990, 30, 109-116). ATDC5 cells are derived from mouse embryonic AT805 teratocarcinoma cells and are used frequently to study the multistep chondrogenic differentiation process from precursor cells into chondrocytes (C. Shukunami et al., Exp. Cell Res. 1998, 241, 1-11; H. Aklyami et al., J. Bone Miner. Res. 1996, 11, 22-28; H. Akiyami et al., Biochem. Biophys. Res. Commun. 1997, 235, 142-147; C. Shukunami et al., J. Cell Biol. 1996, 133, 457-468; C. Shukunami et al., J. Bone Miner. Res. 1997, 12, 1174-1188). Undifferentiated ATDC5 cells grow in vitro until confluence, showing a fibroblast-like morphology. In the presence of insulin, cells undergo transient condensation and form numerous nodular structures (cartilage nodules). The cartilagenous nature of these nodules was shown by Alcian Blue staining as evidence of the production of proteoglycan (aggrecan) and collagen type II expression (by expression analysis), both molecular markers of chondrocytes (C. Shukunami et al., J. Cell Biol. 1996, 133, 457-468).
Chondrogenic differentiation of ATDC5 cells into chondrocytes by the compounds of the invention was determined by measuring the induction of type II collagen protein as a marker of chondrocytes, a structural component of the extracellular matrix which constitutes more than 80% of cartilage mass (D. R. Eyre, Clin. Orthop. Relat. Res. 2004, 427 Suppl, S118-S122). ATDC5 cells were obtained from RIKEN and cultured as monolayer in basal culture medium (Dulbecco's Modified Eagle Medium/Nutrient Mixture F-12 (DMEM/F12, Invitrogen, #31331-093) supplemented with 10 μg/ml Transferrin (Roche, #10652 202001), 3×10E−8 M sodium seienite (Sigma, #S-5261) and 5% Fetal Calf Serum (FCS Gold, PAA, #A15-251)), at 37° C., and 5% CO2 in plastic flasks of 75 cm^2 or 300 cm^2 subconfluently for propagation. ATDC5 cells were harvested and resuspended in differentiation culture medium that consisted of basal culture medium complemented with 10 μg/ml insulin (Sigma, #19278), to initiate chondrogenic differentiation. For studying the effect of test compounds, the ATDC5 cells were plated in 96-well plates (3.0×10E4 cells per well in 200 μl of differentiation culture medium). Test compounds dissolved in DMSO were added to yield increasing compound concentrations, typically from 40 nM to 10 μM, and a final DMSO concentration of 0.1%. On each 96-well plate, control wells containing no test compound but the same concentration of DMSO, i.e. untreated cells, were included and used as reference for the determination of the effect of the test compounds on the cells, and wells containing an internal reference compound at a concentration of 10 μM were included and used as positive control and for standardizing the results. Cells in the wells were incubated for 4 days at 37° C., and 5% CO2, followed by quantification of intracellular collagen type II.
Quantification of collagen type II in the ATDC5-cells was done by immunofluorescence staining of collagen type II, and fluorescence intensity was measured using a cellular high content imaging system (ImageXpress, Molecular Device). For immunofluorescence staining of intracellular collagen, medium was removed after compound incubation and cells were fixed with 200 μl/well methanol/water (95%/5%). Cells were permeabilized in 200 μl/well phosphate-buffered saline (PBS) containing 0.2% Triton X100 for 15 min and, after removal of the solution, blocked for 30 min with 200 μl/well PBS/0.2% Triton X100 containing 1% bovine serum albumin (BSA) to avoid unspecific binding. After the blocking step, the solution was removed and collagen type II staining solution was added. […]

| SMILES | EC50 | Emax |
| --- | --- | --- |
| CC#CCn1c2cnccc2c2cc(Cl)cc(-c3ccc(Cl)nc3Cl)c21 [Example 3, 9-(But-2-ynyl)-6-chloro-8-(2,6-dichloropyridin-3-yl)-9H-pyrido[3,4-b]indole] | > 10 µM | 20 to 50% |
| CC(C)(C)OC(=O)n1cc(-c2cc(Cl)cc3c4ccncc4n(CC(F)(F)F)c23)cn1 [Example 12, tert-Butyl 4-(6-chloro-9-(2,2,2-trifluoroethyl)-9H-pyrido[3,4-b]indol-8-yl)-1H-pyrazole-1-carboxylate] | > 10 µM | 20 to 50% |
| COc1ccc(-c2cc(C)cc3c2[nH]c2c(C)nccc23)cc1 [Example 14, 8-(4-Methoxy-phenyl)-1,6-dimethyl-9H-pyrido[3,4-b]indole] | 0.86 µM | > 80% |
| Cc1cc2c([nH]c3c(-c4ccc(OCCn5cccn5)cc4)cc(Br)cc32)c(C)n1 [Example 16, 6-Bromo-1,3-dimethyl-8-[4-(2-pyrazol-1-yl-ethoxy)-phenyl]-9H-pyrido[3,4-b]indole] | 2.8 µM | 50 to 80% |
| Cc1nccc2c1[nH]c1c(-c3ccc4c(c3)CC(C)O4)cc(Cl)cc12 (centres unmarked) [Example 23, 6-Chloro-1-methyl-8-(2-methyl-2,3-dihydro-benzofuran-5-yl)-9H-pyrido[3,4-b]indole] | 1.6 µM | 50 to 80% |
| Cc1nccc2c1[nH]c1c(-c3ccc(C(O)c4ccccc4)cc3)cc(Cl)cc12 (centres unmarked) [Example 24, [4-(6-Chloro-1-methyl-9H-pyrido[3,4-b]indol-8-yl)-phenyl]-phenyl-methanol] | 2 µM | 50 to 80% |
| Cc1nccc2c1[nH]c1c(-c3ccc(C(O)c4ccccn4)cc3)cc(Cl)cc12 (centres unmarked) [Example 32, [4-(6-Chloro-1-methyl-9H-pyrido[3,4-b]indol-8-yl)-phenyl]-pyridin-2-yl-methanol] | 0.37 µM | 50 to 80% |
| COc1ccc(-c2cc(C(=O)O)cc3c2[nH]c2c(C)nccc23)cc1 [Example 35, 8-(4-Methoxy-phenyl)-1-methyl-9H-pyrido[3,4-b]indole-6-carboxylic acid] | 3.1 µM | > 80% |
| COc1ccc(-c2cc(C(N)=O)cc3c2[nH]c2c(C)nccc23)cc1 [Example 36, 8-(4-Methoxy-phenyl)-1-methyl-9H-pyrido[3,4-b]indole-6-carboxamide] | 0.1 µM | > 80% |
| Cc1nccc2c1[nH]c1c(-c3ccc(OCC4COCCO4)cc3)cc(Cl)cc12 (centres unmarked) [Example 40, 6-Chloro-8-[4-([1,4]dioxan-2-ylmethoxy)-phenyl]-1-methyl-9H-pyrido[3,4-b]indole] | 0.16 µM | > 80% |
| Cc1nccc2c1[nH]c1c(-c3ccc(OCc4ncc5ccccc5n4)cc3)cc(Cl)cc12 [Example 41, 6-Chloro-1-methyl-8-[4-(quinazolin-2-ylmethoxy)-phenyl]-9H-pyrido[3,4-b]indole] | 0.24 µM | 50 to 80% |
| Cc1nccc2c1[nH]c1c(-c3ccc(OCCn4cc(Br)cn4)cc3)cc(Cl)cc12 [Example 42, 8-(4-[2-(4-Bromo-pyrazol-1-yl)-ethoxy]-phenyl)-6-chloro-1-methyl-9H-pyrido[3,4-b]indole] | 0.51 µM | 50 to 80% |
| Cc1nc(Br)cc2c1[nH]c1c(-c3ccc(OCCn4cc(Br)cn4)cc3)cc(Cl)cc12 [Example 43, 3-Bromo-8-(4-[2-(4-bromo-pyrazol-1-yl)-ethoxy]-phenyl)-6-chloro-1-methyl-9H-pyrido[3,4-b]indole] | > 6.6 µM | < 20% |

Continued, in another order:

| EC50 | SMILES | Emax |
| --- | --- | --- |
| 1.7 µM | CCn1c2cnccc2c2cc(Cl)cc(-c3cccnc3)c21 [Example 1, 6-Chloro-9-ethyl-8-pyridin-3-yl-9H-pyrido[3,4-b]indole] | < 20% |
| 0.83 µM | N#CCn1c2cnccc2c2cc(Cl)cc(-c3ccc(Cl)nc3Cl)c21 [Example 4, 2-(6-Chloro-8-(2,6-dichloropyridin-3-yl)-9H-pyrido[3,4-b]indol-9-yl)acetonitrile] | > 80% |
| 2.2 µM | CCn1c2c(-c3ccn(Cc4cccnc4C)n3)cc(Cl)cc2c2ccnc(C)c21 [Example 6, 6-Chloro-9-ethyl-1-methyl-8-[1-(2-methyl-pyridin-3-ylmethyl)-1H-pyrazol-3-yl]-9H-pyrido[3,4-b]indole] | 50 to 80% |
| > 3.3 µM | CCn1c2c(-c3ccnn3Cc3cccnc3C)cc(Cl)cc2c2ccnc(C)c21 [Example 7, 6-Chloro-9-ethyl-1-methyl-8-[2-(2-methyl-pyridin-3-ylmethyl)-2H-pyrazol-3-yl]-9H-pyrido[3,4-b]indole] | < 20% |
| 1.4 µM | CCn1c2c(-c3cc(C)nn3C)cc(Cl)cc2c2ccnc(C)c21 [Example 9, 6-Chloro-8-(2,5-dimethyl-2H-pyrazol-3-yl)-9-ethyl-1-methyl-9H-pyrido[3,4-b]indole] | > 80% |
| 1 µM | CCn1c2c(-c3cnn(C)c3)cc(C)cc2c2ccnc(C)c21 [Example 15, 9-Ethyl-1,6-dimethyl-8-(1-methyl-1H-pyrazol-4-yl)-9H-pyrido[3,4-b]indole] | 50 to 80% |
| 3.6 µM | CCn1c2c(-c3ccc(OC)c(N)n3)cc(Cl)cc2c2ccnc(C)c21 [Example 17, 6-(6-Chloro-9-ethyl-1-methyl-9H-pyrido[3,4-b]indol-8-yl)-3-methoxy-pyridin-2-ylamine] | > 80% |
| 1 µM | CCn1c2c(-c3cc(-c4ccccc4)no3)cc(Cl)cc2c2ccnc(C)c21 [Example 18, 6-Chloro-9-ethyl-1-methyl-8-[3-phenyl-isoxazol-5-yl)-9H-pyrido[3,4-b]indole] | > 80% |
| 3.9 µM | CCn1c2c(-c3ccn(C)n3)cc(Cl)cc2c2ccnc(C)c21 [Example 20, 6-Chloro-9-ethyl-1-methyl-8-(1-methyl-1H-pyrazol-3-yl)-9H-pyrido[3,4-b]indole] | 50 to 80% |
| 0.17 µM | Cc1nccc2c3cc(Cl)cc(-c4cnn(C)c4)c3n(C)c12 [Example 25, 6-Chloro-1,9-dimethyl-8-(1-methyl-1H-pyrazol-4-yl)-9H-pyrido[3,4-b]indole] | > 80% |
| 0.53 µM | CCn1c2c(-c3ccc(OCCN(C(C)C)C(C)C)cc3)cc(Cl)cc2c2ccnc(C)c21 [Example 26, (2-[4-(6-Chloro-9-ethyl-1-methyl-9H-pyrido[3,4-b]indol-8-yl)-phenoxy]-ethyl)-diisopropyl-amine] | 50 to 80% |
| 0.19 µM | CCn1c2c(-c3ccc(OCCN4CCOCC4)cc3)cc(Cl)cc2c2ccnc(C)c21 [Example 28, 6-Chloro-9-ethyl-1-methyl-8-[4-(2-morpholin-4-yl-ethoxy)-phenyl]-9H-pyrido[3,4-b]indole] | > 80% |
| 0.27 µM | CCn1c2c(-c3ccc(CN4CCOCC4)cc3)cc(Cl)cc2c2ccnc(C)c21 [Example 30, 6-Chloro-9-ethyl-1-methyl-8-(4-morpholin-4-ylmethyl-phenyl)-9H-pyrido[3,4-b]indole] | > 80% |
| 0.25 µM | Cc1nccc2c1[nH]c1c(-c3ccc(C=O)cc3)cc(Cl)cc12 [Example 31, 4-(6-Chloro-1-methyl-9H-pyrido[3,4-b]indol-8-yl)-benzaldehyde] | > 80% |
| 2.6 µM | CCn1c2c(-c3cnn(Cc4ccc5ccccc5n4)c3)cc(Br)cc2c2ccnc(C)c21 [Example 38, 6-Bromo-9-ethyl-1-methyl-8-(1-quinolin-2-ylmethyl-1H-pyrazol-4-yl)-9H-pyrido[3,4-b]indole] | 50 to 80% |
